Biological target: T1, human glucocorticoid receptor (Homo sapiens, UniProt P04150)
T1 construct: purified human recombinant full-length glucocorticoid receptor (2 nM); purchased Invitrogen Part #2893
T1 sequence (P04150 1-777): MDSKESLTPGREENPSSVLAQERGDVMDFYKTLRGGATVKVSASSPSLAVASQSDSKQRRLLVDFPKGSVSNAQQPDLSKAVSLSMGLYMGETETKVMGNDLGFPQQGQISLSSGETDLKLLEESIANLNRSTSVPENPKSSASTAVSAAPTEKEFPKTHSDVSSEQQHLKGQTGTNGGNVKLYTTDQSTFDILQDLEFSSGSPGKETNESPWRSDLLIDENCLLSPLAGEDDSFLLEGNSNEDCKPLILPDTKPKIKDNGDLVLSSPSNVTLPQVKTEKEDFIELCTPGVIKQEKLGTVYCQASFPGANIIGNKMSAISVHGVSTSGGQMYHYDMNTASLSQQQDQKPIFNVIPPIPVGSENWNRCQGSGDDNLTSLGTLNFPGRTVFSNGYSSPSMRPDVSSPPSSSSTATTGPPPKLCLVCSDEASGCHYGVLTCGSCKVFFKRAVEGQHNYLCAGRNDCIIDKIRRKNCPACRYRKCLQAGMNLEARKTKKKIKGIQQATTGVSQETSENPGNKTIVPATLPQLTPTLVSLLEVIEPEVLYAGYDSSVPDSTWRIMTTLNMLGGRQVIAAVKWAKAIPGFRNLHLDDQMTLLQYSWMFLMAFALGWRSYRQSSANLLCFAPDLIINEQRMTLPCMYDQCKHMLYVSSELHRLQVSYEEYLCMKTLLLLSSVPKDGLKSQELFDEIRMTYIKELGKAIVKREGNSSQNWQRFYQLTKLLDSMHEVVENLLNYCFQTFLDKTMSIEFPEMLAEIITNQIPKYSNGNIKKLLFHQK
Experiment: Glucocorticoid Receptor Binding Assay (I), fluorescence polarization competitor kit
Conditions: purified human recombinant full-length GR, Fluormone GS Red
Method: Glucocorticoid Receptor Binding Assay (I)^a
In order to assess the affinity of test compounds for the human glucocorticoid receptor, a commercially available kit was used (Glucocorticoid Receptor Competitor Assay Kit, Invitrogen Part #2893). Briefly, purified human recombinant full-length glucocorticoid receptor (2 nM) was mixed with fluorescently labeled glucocorticoid (1 nM Fluormone GS Red) in the presence or absence of test compound. After two hour incubation at room temperature in the dark, the fluorescence polarization (FP) of the samples was measured. The FP of a mixture of receptor, fluorescent probe (i.e. Fluormone GS Red) and 5 μM dexamethasone represented background fluorescence or 100% inhibition, whereas, the FP of the mixture without dexamethasone (but in the presence of vehicle) was taken to be 100% binding. The percentage inhibition of test compounds were then compared to the sample with 5 μM dexamethasone and expressed as % relative binding activity with dexamethasone being 100% and no inhibition is 0%. Test compounds were analyzed in the concentration range from 8.5E-05 μM to 5 μM.

Row | Ki [nM] | Compound
1 | 17.4 | CCN(CC)C(=O)c1ccc(-c2ccc(C(c3ccccc3)C(C)(C)C(=O)Nc3nncs3)s2)cc1Cl (centres unmarked) [Example 48, 2-chloro-4-(5-(2,2-dimethyl-3-oxo-1-phenyl-3-(1,3,4-thiadiazol-2-ylamino)propyl)-2-thienyl)-N,N-diethylbenzamide]
2 | 3.58 | CCN(CC)C(=O)c1ccc(-c2ccc(C(c3ccccc3)C(C)(C)C(=O)Nc3nncs3)s2)cc1 (centres unmarked) [Example 49, 4-(5-(2,2-dimethyl-3-oxo-1-phenyl-3-(1,3,4-thiadiazol-2-ylamino)propyl)-2-thienyl)-N,N-diethylbenzamide]
3 | 79.7 | CCCN(CCC)C(=O)c1ccc(-c2ccc(C(c3ccccc3)C(C)(C)C(=O)Nc3nncs3)s2)cc1 (centres unmarked) [Example 51, 4-(5-(2,2-dimethyl-3-oxo-1-phenyl-3-(1,3,4-thiadiazol-2-ylamino)propyl)-2-thienyl)-N,N-dipropylbenzamide]
4 | 152 | COC(=O)c1ccc(-c2ccc(C(c3ccccc3)C(C)(C)C(=O)Nc3nncs3)s2)cc1F (centres unmarked) [Example 53, methyl 4-(5-(2,2-dimethyl-3-oxo-1-phenyl-3-(1,3,4-thiadiazol-2-ylamino)propyl)-2-thienyl)-2-fluorobenzoate]
5 | 36.8 | CC(C)(C(=O)Nc1nncs1)C(c1ccccc1)c1ccc(-c2ccc(C(=O)N3CCC(F)(F)CC3)cc2)s1 (centres unmarked) [Example 55, 3-(5-(4-((4,4-Difluoro-1-piperidinyl)carbonyl)phenyl)-2-thienyl)-2,2-dimethyl-3-phenyl-N-1,3,4-thiadiazol-2-ylpropanamide]
6 | 1.21 | CC(C)(C(=O)Nc1nncs1)[C@H](c1cccc(F)c1)c1ccc(Br)s1 [Example 56, (3S)-3-(5-bromo-2-thienyl)-3-(3-fluorophenyl)-2,2-dimethyl-N-1,3,4-thiadiazol-2-ylpropanamide]
7 | 2.39 | CC(C)(C(=O)Nc1nncs1)[C@@H](c1cccc(F)c1)c1ccc(Br)s1 [Example 57, (3R)-3-(5-bromo-2-thienyl)-3-(3-fluorophenyl)-2,2-dimethyl-N-1,3,4-thiadiazol-2-ylpropanamide]
8 | 29.2 | CN(C)C(=O)c1ccc(-c2ccc([C@@H](c3cccc(F)c3)C(C)(C)C(=O)Nc3nncs3)s2)cc1 [Example 58, 4-(5-((1S)-1-(3-fluorophenyl)-2,2-dimethyl-3-oxo-3-(1,3,4-thiadiazol-2-ylamino)propyl)-2-thienyl)-N,N-dimethylbenzamide]
9 | 66.9 | CC(C)(C(=O)Nc1nncs1)[C@H](c1cccc(F)c1)c1ccc(-c2ccc(C(=O)N3CCOCC3)cc2)s1 [Example 59, (3S)-3-(3-fluorophenyl)-2,2-dimethyl-3-(5-(4-(4-morpholinylcarbonyl)phenyl)-2-thienyl)-N-1,3,4-thiadiazol-2-ylpropanamide]
10 | 161 | CN(C)C(=O)c1ccc(-c2ccc([C@@H](c3cccc(F)c3)C(C)(C)C(=O)Nc3nncs3)s2)cc1Cl [Example 60, 2-chloro-4-(5-((1S)-1-(3-fluorophenyl)-2,2-dimethyl-3-oxo-3-(1,3,4-thiadiazol-2-ylamino)propyl)-2-thienyl)-N,N-dimethylbenzamide]
11 | 101 | CC(C)(C(=O)Nc1nncs1)[C@H](c1cccc(F)c1)c1ccc(-c2ccc(C(=O)N3CCOCC3)c(Cl)c2)s1 [Example 61, (3S)-3-(5-(3-chloro-4-(4-morpholinylcarbonyl)phenyl)-2-thienyl)-3-(3-fluorophenyl)-2,2-dimethyl-N-1,3,4-thiadiazol-2-ylpropanamide]
12 | 87.6 | CCN(C)C(=O)c1ccc(-c2ccc([C@@H](c3cccc(F)c3)C(C)(C)C(=O)Nc3nncs3)s2)cc1 [Example 62, N-ethyl-4-(5-((1S)-1-(3-fluorophenyl)-2,2-dimethyl-3-oxo-3-(1,3,4-thiadiazol-2-ylamino)propyl)-2-thienyl)-N-methylbenzamide]
13 | 565 | CC(C)(C(=O)Nc1nncs1)[C@H](c1cccc(F)c1)c1ccc(-c2ccc(C(=O)O)c(F)c2)s1 [Example 63, 2-fluoro-4-(5-((1S)-1-(3-fluorophenyl)-2,2-dimethyl-3-oxo-3-(1,3,4-thiadiazol-2-ylamino)propyl)-2-thienyl)benzoic acid]
14 | 1.03 | CCN(CC)C(=O)c1ccc(-c2ccc([C@H](c3cccc(F)c3)C(C)(C)C(=O)Nc3nncs3)s2)cc1 [Example 69, N,N-diethyl-4-(5-((1R)-1-(3-fluorophenyl)-2,2-dimethyl-3-oxo-3-(1,3,4-thiadiazol-2-ylamino)propyl)-2-thienyl)benzamide]
15 | 1.51 | CC(C)(C(=O)Nc1nncs1)[C@@H](c1cccc(F)c1)c1ccc(-c2ccc(C(=O)N3CCCCC3)cc2)s1 [Example 71, (3R)-3-(3-fluorophenyl)-2,2-dimethyl-3-(5-(4-(1-piperidinylcarbonyl)phenyl)-2-thienyl)-N-1,3,4-thiadiazol-2-ylpropanamide]
16 | 29.8 | CCCN(CCC)C(=O)c1ccc(-c2ccc([C@H](c3cccc(F)c3)C(C)(C)C(=O)Nc3nncs3)s2)cc1 [Example 72, 4-(5-((1R)-1-(3-fluorophenyl)-2,2-dimethyl-3-oxo-3-(1,3,4-thiadiazol-2-ylamino)propyl)-2-thienyl)-N,N-dipropylbenzamide]
17 | 6.13 | CCNC(=O)c1ccc(-c2ccc([C@H](c3cccc(F)c3)C(C)(C)C(=O)Nc3nncs3)s2)cc1 [Example 73, N-ethyl-4-(5-((1R)-1-(3-fluorophenyl)-2,2-dimethyl-3-oxo-3-(1,3,4-thiadiazol-2-ylamino)propyl)-2-thienyl)benzamide]
18 | 2.24 | CC(C)(C(=O)Nc1nncs1)[C@@H](c1cccc(F)c1)c1ccc(-c2ccc(C(N)=O)cc2)s1 [Example 74, 4-(5-((1R)-1-(3-fluorophenyl)-2,2-dimethyl-3-oxo-3-(1,3,4-thiadiazol-2-ylamino)propyl)-2-thienyl)benzamide]
19 | 1.52 | CNC(=O)c1ccc(-c2ccc([C@H](c3cccc(F)c3)C(C)(C)C(=O)Nc3nncs3)s2)cc1 [Example 75, 4-(5-((1R)-1-(3-fluorophenyl)-2,2-dimethyl-3-oxo-3-(1,3,4-thiadiazol-2-ylamino)propyl)-2-thienyl)-N-methylbenzamide]
20 | 27 | CC(C)(C)NC(=O)c1ccc(-c2ccc([C@H](c3cccc(F)c3)C(C)(C)C(=O)Nc3nncs3)s2)cc1 [Example 76, N-tert-butyl-4-(5-((1R)-1-(3-fluorophenyl)-2,2-dimethyl-3-oxo-3-(1,3,4-thiadiazol-2-ylamino)propyl)-2-thienyl)benzamide]
21 | 4.19 | CC(C)(C(=O)Nc1nncs1)[C@@H](c1cccc(F)c1)c1ccc(-c2ccc(C(=O)NC3CC3)cc2)s1 [Example 77, N-cyclopropyl-4-(5-((1R)-1-(3-fluorophenyl)-2,2-dimethyl-3-oxo-3-(1,3,4-thiadiazol-2-ylamino)propyl)-2-thienyl)benzamide]
22 | 24.5 | CC(C)(C(=O)Nc1nncs1)[C@@H](c1cccc(F)c1)c1ccc(-c2ccc(C(=O)O)c(F)c2)s1 [Example 78, 2-fluoro-4-(5-((1R)-1-(3-fluorophenyl)-2,2-dimethyl-3-oxo-3-(1,3,4-thiadiazol-2-ylamino)propyl)-2-thienyl)benzoic acid]
23 | 4.32 | CC(C)(C(=O)Nc1nncs1)[C@@H](c1cccc(F)c1)c1ccc(-c2ccc(C(=O)N3CCC3)cc2)s1 [Example 81, (3R)-3-(5-(4-(1-azetidinylcarbonyl)phenyl)-2-thienyl)-3-(3-fluorophenyl)-2,2-dimethyl-N-1,3,4-thiadiazol-2-ylpropanamide]
24 | 2.66 | CC(C)(C(=O)Nc1nncs1)[C@@H](c1cccc(F)c1)c1ccc(-c2ccc(C(=O)N3CCC3)c(F)c2)s1 [Example 82, (3R)-3-(5-(4-(1-azetidinylcarbonyl)-3-fluorophenyl)-2-thienyl)-3-(3-fluorophenyl)-2,2-dimethyl-N-1,3,4-thiadiazol-2-ylpropanamide]
25 | 4.59 | CN(C)C(=O)c1ccc(-c2ccc(C(c3cc(F)cc(F)c3)C(C)(C)C(=O)Nc3nncs3)s2)cc1Cl (centres unmarked) [Example 91, 2-chloro-4-(5-(1-(3,5-difluorophenyl)-2,2-dimethyl-3-oxo-3-(1,3,4-thiadiazol-2-ylamino)propyl)-2-thienyl)-N,N-dimethylbenzamide]
26 | 1.14 | CCN(C)C(=O)c1ccc(-c2ccc(C(c3cc(F)cc(F)c3)C(C)(C)C(=O)Nc3nncs3)s2)cc1 (centres unmarked) [Example 92, 4-(5-(1-(3,5-difluorophenyl)-2,2-dimethyl-3-oxo-3-(1,3,4-thiadiazol-2-ylamino)propyl)-2-thienyl)-N-ethyl-N-methylbenzamide]
